Experimental data as given in ChEMBL document CHEMBL1201862, “PubChem BioAssay data set” (2004).
Blank lines part the entries; values can stand above or below the compound they belong to. Activity calls are given as the source filed them.

Tests used:
Type in all cases: functional
[1] = target: T1, Caspase-3 (Homo sapiens, UniProt P42574);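 further: Dose-response selectivity test against caspase-3 for candidate inhibitors of sentrin-specific proteases (SENPs)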
T1 sequence (P42574 whole entry): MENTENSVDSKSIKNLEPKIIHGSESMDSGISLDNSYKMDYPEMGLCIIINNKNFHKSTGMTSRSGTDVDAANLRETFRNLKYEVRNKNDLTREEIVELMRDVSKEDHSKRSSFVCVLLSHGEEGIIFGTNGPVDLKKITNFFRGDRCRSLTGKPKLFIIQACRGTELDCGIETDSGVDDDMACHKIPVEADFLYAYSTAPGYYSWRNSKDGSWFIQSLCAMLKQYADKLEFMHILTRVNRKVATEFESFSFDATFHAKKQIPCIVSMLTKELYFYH

[2] = target: T2, Apoptotic protease-activating factor 1 (Homo sapiens, UniProt O14727)
T2 sequence (O14727 whole entry): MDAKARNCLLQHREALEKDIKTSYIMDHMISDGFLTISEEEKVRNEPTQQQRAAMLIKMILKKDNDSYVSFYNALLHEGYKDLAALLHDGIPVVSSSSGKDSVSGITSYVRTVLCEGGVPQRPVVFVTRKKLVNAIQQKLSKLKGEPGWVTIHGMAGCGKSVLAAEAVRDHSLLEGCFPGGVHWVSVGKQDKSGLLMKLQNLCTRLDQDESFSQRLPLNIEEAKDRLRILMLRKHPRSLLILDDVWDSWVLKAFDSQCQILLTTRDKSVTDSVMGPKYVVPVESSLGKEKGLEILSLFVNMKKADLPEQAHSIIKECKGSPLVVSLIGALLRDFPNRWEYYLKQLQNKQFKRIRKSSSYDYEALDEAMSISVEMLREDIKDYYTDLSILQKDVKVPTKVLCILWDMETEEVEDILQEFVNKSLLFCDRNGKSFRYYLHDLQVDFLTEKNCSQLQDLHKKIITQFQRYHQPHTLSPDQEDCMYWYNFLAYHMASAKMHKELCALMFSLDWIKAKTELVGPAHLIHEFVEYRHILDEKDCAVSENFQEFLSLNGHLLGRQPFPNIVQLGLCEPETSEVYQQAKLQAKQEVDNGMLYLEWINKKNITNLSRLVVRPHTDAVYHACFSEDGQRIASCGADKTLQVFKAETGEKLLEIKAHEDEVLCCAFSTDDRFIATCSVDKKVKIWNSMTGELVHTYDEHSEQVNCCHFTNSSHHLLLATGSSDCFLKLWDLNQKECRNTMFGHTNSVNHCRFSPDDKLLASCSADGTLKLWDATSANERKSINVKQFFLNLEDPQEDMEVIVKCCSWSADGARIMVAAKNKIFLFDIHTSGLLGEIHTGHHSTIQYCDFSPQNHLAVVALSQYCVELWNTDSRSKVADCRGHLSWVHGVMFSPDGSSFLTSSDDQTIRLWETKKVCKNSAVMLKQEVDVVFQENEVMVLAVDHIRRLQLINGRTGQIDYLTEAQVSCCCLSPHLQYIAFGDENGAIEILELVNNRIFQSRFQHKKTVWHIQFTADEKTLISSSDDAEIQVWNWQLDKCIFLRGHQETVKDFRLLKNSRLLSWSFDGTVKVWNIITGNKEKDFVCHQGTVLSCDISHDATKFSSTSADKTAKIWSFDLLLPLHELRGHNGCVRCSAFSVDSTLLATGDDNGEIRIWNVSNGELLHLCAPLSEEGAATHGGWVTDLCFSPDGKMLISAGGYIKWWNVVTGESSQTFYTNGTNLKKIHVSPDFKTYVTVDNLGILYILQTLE

[3] = target: MAP kinase-activated protein kinase 2 (Homo sapiens, UniProt P49137);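 further: measured as one member of a kinome-wide kinase panel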
MAP kinase-activated protein kinase 2, sequence (P49137 whole entry, canonical isoform): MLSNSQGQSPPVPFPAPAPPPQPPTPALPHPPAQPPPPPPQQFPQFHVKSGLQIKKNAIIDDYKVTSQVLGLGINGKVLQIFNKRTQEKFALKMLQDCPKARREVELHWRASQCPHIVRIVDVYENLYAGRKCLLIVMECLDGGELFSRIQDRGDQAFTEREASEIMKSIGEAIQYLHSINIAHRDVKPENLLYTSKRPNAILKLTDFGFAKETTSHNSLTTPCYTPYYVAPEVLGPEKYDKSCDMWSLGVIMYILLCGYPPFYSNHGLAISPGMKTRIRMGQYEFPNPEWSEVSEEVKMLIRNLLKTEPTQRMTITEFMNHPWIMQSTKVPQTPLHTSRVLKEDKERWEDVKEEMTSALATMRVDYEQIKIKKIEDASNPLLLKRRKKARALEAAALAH

[4] = target: Casein kinase I isoform gamma-1 (Homo sapiens, UniProt Q9HCP0);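 further: measured as the CSNK1G1 member of a kinome profiling panel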
Casein kinase I isoform gamma-1, sequence (Q9HCP0 whole entry, canonical isoform): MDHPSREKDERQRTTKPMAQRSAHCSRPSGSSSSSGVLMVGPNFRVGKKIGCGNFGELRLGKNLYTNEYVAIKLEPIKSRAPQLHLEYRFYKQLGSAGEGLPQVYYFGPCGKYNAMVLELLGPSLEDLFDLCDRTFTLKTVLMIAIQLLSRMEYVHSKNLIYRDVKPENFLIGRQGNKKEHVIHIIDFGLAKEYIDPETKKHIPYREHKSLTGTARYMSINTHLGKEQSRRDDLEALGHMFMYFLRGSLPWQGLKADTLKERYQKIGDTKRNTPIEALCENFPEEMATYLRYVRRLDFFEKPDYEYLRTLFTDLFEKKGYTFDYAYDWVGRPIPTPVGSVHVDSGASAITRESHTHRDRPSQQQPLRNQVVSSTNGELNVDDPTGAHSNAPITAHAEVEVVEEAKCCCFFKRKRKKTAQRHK

[5] = target: Non-receptor tyrosine-protein kinase TYK2 (Homo sapiens, UniProt P29597)
[6] = target: Cyclin-dependent kinase 1 (Homo sapiens, UniProt P06493);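 further: Kinome-wide panel profiling, with the target listed as panel member CDC2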
[7] = target: Interleukin-1 receptor-associated kinase 1 (Homo sapiens, UniProt P51617);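 further: IRAK1 tested as one member of a kinome panel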
[8] = target: Tyrosine-protein kinase SYK (Homo sapiens, UniProt P43405)
[9] = target: Maternal embryonic leucine zipper kinase (Homo sapiens, UniProt Q14680)
[10] = target: Ephrin type-A receptor 2 (Homo sapiens, UniProt P29317);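 further: EPHA2 tested as one member of a kinome-wide kinase panel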
Ephrin type-A receptor 2, sequence (P29317 whole entry): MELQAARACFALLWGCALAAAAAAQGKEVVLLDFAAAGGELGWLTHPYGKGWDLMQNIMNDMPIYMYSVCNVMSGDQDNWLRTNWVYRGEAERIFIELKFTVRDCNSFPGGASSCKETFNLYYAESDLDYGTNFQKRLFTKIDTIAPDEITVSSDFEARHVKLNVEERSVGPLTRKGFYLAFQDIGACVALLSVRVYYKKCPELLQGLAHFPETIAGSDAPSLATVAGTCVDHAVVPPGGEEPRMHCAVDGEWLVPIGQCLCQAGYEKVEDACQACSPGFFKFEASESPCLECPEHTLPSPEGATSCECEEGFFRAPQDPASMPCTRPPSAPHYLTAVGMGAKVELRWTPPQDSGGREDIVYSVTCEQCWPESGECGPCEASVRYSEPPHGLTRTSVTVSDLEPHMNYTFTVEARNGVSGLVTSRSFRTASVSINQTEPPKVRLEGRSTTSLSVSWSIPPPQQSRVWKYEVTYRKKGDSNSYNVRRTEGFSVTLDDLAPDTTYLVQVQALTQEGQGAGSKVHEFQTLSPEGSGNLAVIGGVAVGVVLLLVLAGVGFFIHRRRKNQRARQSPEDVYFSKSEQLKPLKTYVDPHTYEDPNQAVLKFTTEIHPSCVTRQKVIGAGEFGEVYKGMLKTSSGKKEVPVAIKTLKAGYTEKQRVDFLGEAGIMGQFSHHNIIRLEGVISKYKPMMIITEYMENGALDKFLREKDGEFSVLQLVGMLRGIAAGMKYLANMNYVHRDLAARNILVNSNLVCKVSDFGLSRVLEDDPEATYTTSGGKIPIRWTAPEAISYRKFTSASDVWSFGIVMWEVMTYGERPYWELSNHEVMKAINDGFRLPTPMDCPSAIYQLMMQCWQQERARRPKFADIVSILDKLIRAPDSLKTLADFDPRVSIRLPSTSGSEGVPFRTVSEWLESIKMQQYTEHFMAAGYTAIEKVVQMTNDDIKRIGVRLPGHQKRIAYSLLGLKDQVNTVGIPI

[11] = target: Protein kinase C delta type (Homo sapiens, UniProt Q05655)
[12] = target: Insulin receptor (Homo sapiens, UniProt P06213);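 further: insulin receptor kinase tested as one member of a kinome-wide kinase panel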
Insulin receptor, sequence (P06213 28-758 limits assumed): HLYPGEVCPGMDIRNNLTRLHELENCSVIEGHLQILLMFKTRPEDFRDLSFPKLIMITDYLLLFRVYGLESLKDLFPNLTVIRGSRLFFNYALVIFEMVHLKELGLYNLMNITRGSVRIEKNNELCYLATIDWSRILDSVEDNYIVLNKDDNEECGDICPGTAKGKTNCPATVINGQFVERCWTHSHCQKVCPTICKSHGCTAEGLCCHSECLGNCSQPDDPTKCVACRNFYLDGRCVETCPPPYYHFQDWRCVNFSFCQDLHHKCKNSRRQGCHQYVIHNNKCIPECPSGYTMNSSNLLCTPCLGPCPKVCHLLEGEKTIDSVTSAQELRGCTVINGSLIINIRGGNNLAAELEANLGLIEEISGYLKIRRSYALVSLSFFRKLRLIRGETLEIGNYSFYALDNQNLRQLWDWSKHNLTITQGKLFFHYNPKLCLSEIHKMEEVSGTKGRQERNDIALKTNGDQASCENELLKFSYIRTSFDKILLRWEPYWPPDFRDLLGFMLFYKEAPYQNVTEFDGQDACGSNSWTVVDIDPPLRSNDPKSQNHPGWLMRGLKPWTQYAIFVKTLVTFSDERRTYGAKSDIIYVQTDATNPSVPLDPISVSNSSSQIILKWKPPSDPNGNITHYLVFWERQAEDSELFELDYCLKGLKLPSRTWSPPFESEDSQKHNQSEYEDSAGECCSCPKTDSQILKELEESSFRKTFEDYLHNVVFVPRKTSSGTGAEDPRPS
Insulin receptor, sequence (P06213 763-1382 limits assumed): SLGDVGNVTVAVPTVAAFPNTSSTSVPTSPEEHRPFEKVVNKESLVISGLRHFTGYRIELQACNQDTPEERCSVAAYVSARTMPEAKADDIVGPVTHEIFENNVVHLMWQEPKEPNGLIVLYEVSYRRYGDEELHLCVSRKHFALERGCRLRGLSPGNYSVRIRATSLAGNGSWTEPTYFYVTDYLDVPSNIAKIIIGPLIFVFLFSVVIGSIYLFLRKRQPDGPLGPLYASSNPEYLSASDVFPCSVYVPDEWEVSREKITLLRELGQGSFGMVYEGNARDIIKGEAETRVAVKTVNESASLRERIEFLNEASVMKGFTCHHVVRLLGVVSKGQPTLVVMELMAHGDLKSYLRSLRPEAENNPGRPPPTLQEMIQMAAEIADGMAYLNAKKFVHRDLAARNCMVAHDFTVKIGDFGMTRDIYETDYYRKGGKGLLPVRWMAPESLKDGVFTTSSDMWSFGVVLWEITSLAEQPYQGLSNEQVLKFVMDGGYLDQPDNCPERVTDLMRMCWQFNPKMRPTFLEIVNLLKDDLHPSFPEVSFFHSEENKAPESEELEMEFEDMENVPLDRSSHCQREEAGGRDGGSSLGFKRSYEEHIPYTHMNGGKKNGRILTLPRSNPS

[13] = target: RAC-gamma serine/threonine-protein kinase (Homo sapiens, UniProt Q9Y243)
RAC-gamma serine/threonine-protein kinase, sequence (Q9Y243 whole entry): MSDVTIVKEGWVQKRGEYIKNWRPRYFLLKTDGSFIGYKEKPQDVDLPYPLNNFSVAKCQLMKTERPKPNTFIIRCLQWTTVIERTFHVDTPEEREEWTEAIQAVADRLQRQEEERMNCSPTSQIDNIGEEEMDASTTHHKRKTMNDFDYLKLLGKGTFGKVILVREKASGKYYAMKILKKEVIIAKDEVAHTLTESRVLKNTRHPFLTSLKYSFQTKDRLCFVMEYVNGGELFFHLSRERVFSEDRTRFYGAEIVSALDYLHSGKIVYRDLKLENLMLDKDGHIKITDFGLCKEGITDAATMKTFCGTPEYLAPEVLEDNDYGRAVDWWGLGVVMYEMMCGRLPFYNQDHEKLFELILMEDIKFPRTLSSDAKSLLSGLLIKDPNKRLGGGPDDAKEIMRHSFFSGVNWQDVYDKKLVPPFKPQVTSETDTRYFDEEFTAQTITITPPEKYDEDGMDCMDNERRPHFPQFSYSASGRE

[14] = target: BDNF/NT-3 growth factors receptor (Homo sapiens, UniProt Q16620);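 further: NTRK2 measured as one member of a broad kinome-wide kinase profiling panel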
BDNF/NT-3 growth factors receptor, sequence (Q16620 whole entry): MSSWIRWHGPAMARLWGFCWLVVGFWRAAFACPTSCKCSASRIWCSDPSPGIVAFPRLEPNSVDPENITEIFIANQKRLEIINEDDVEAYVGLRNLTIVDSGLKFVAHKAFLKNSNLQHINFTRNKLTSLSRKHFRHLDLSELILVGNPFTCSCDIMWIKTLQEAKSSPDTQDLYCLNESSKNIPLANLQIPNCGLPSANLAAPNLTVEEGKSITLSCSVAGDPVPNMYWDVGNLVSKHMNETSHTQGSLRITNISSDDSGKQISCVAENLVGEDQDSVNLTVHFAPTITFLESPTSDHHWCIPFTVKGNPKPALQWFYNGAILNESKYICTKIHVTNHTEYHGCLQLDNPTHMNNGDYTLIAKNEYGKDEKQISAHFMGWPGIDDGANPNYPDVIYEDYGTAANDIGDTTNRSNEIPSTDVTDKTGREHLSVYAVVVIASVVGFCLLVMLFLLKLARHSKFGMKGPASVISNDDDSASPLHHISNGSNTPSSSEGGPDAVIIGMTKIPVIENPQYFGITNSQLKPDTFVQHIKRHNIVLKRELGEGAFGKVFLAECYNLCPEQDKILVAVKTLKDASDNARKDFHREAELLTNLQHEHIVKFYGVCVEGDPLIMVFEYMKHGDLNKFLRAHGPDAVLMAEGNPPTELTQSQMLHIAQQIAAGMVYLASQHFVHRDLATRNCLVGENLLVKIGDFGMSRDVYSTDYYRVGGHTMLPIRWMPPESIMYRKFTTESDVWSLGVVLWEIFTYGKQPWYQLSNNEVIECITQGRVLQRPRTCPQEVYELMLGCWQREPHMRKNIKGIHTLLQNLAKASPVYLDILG

[15] = target: Protein kinase C iota type (Homo sapiens, UniProt P41743);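 further: measured within a kinome-wide kinase panel, PRKCI as panel member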
[16] = target: Tyrosine-protein kinase FRK (Homo sapiens, UniProt P42685);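 further: FRK tested as one member of a kinome panel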
Tyrosine-protein kinase FRK, sequence (P42685 whole entry): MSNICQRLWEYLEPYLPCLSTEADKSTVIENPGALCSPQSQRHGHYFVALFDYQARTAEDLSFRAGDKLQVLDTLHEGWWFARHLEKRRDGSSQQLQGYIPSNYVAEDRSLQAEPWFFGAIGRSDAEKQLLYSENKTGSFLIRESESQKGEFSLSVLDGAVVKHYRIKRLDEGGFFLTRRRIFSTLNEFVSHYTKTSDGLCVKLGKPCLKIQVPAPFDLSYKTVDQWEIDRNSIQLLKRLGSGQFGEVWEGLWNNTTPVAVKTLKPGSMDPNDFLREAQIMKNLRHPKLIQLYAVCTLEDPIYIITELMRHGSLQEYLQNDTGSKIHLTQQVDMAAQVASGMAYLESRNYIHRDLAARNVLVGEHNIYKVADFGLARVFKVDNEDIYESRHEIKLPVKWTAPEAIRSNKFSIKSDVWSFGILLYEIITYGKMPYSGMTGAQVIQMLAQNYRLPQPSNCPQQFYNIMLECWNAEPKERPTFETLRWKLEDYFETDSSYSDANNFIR

[17] = target: Vascular endothelial growth factor receptor 3 (Homo sapiens, UniProt P35916);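 further: value from a kinome-wide profiling panel, with FLT4 as the panel member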
[18] = target: Mitogen-activated protein kinase 13 (Homo sapiens, UniProt O15264)
[19] = target: Cyclin-dependent kinase 5 (Homo sapiens, UniProt Q00535);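 further: CDK5 measured as one member of a kinase profiling panel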

Compound: O=C1C2=[N+]([O-])[C@H]3CCCC[C@H]3[N+]([O-])=C2c2ccccc21
IC50 [1]: 15400 nM (active)
IC50 [2]: 18100 nM (active)

Ki [3]: 794 nM (active)
Ki [4]: 100 nM (active)
Ki [5]: 794 nM (active)
Ki [6]: 6.31 nM (active)
Ki [7]: 126 nM (active)
Ki [8]: > 1580 nM (inactive)
Ki [9]: 126 nM (active)
Ki [10]: > 3160 nM (inactive)
Ki [11]: 3.16 nM (active)
Ki [12]: 501 nM (active)
Ki [13]: 631 nM (active)
Ki [14]: > 5010 nM (inactive)
Ki [15]: 31.6 nM (active)
Ki [16]: 501 nM (active)
Compound: NC1CCC(Nc2nccc(-c3c[nH]c4ncccc34)n2)CC1 (centres undefined)

Compound: COC(C(=O)N1Cc2[nH]nc(NC(=O)c3ccc(N4CCN(C)CC4)cc3)c2C1)c1ccccc1 (centres undefined)
Ki [17]: 158 nM (active)
Ki [18]: > 7940 nM (inactive)

Ki [19]: 5010 nM (active)
Compound: CC(C)(O)c1cn(-c2ccc3[nH]ncc3c2)nn1
